The results in this text go back to patent publication US7037656B2, “Methods and compositions for identifying ligands for nuclear receptors” (priority 2000, dated 2006).

What all share (experiment): Yeast 6x EcRE-lacZ β-galactosidase transactivation assay
Holding throughout (type): cell-based

One assay deals with T1, Cf EcR + CfUSP (Choristoneura fumiferana, UniProt O77240).
T1 construct: human ubiquitin (76 aa) (N, cleaved yes); expressed in transfected cells; host or cells: yeast (Saccharomyces cerevisiae)
The conditions noted are these: RH 5992 10 μM, 4 hours, DMSO control 2.734. The procedure:
(§1) Briefly, yeast cells are cultured in 5 mL of YPD liquid medium overnight at 30° C. The cell culture was diluted 1:20 in YPD media and further grown until cell density reached an O.D of 0.6. at OD600. The cells were pelleted by centrifugation and washed with 10 mL of TE+0.1M lithium acetate. Cells are then resuspended in 10 mL TE+0.1M lithium acetate and incubated at 30° C. for 1 hour. Cells are collected and resuspended in 0.5 mL of TE+ 0.1M lithium acetate. Aliquots of cells (50 μL), were incubated for 15 minutes at 30° C. with 1–2 μg plasmid DNA in the presence of 5 μg of denatured salmon sperm DNA as DNA carrier. In the case of co-transformation, the indicated plasmids were added simultaneously. 50% polyethyleneglycol of molecular weight 4000, diluted in TE, was added to a final concentration of 35%. DMSO was added to the transformation solution simultaneously to a final concentration 3%. The samples were mixed well by vortexing and incubated for an additional 30 minutes at 30° C. The cell mixture is then heated for 15 minutes at 42° C. Cells were then collected and plated onto appropriate yeast selective media. Transformants of 4 plasmids are selected on the complete media without tryptophan, uracil, leucine and histidine.
(§2) The yeast cells grown overnight in selective liquid media at 30° C. were diluted in prewarmed liquid selective media to 0.1 at OD600 (ODculture). 100 μl of the cell culture was spiked to each well of a.96-well microtiter plate. Ligand (2 μl diluted in DMSO) was added to each well giving a final concentration of DMSO of 2%. As a control, 2 μl of DMSO were also added to additional test wells. The final concentration of the tested compounds in the media is 10 μM. The cells were incubated in the presence of ligand in a shaker at 30° C. After 4 hours of incubation, 100 μl of 2× “Z” Sarcosine-ONPG buffer (120 mM Na2HPO4, 80 mM NaH2PO4, 20 mM KCl, 2 mM MgSO4, 100 mM beta-mercaptoethanol (Sigma), pH 7.0, 0.4% lauroyl sarcosine (Sigma), 4 mg/mL ONPG (Diagnostic Chemicals limited) was added to each well and the plate was further incubated at 37° C. The 2× “Z” Sarcosine-ONPG buffer is freshly prepared or stored at −20° C. prior to use. After incubation at 37° C. for 1 hour. The reaction was stopped by adding 100 μL of quenching solution 0.5 M Na2CO3 and OD405 (ODreaction) and beta-galactosidase activity was measured in a micro plate reader (Biotek) at a wave length of 405–450 nanometers. The effect of copper on enhancement of the transactivation response mediated by the ligands tested was studied by adding CuSO4 to the media to a final concentration of 10 μM.
(§3) Using the transformation method described above, yeast were co-transformed with a reporter gene as shown in FIG. 2 and the expression vector encoding the full-length Choristoneura fumiferana ecdysone receptor, Cf EcR (FIG. 5A) in the presence or absence of the Cf EcR heterodimer partner, Cf USP (FIG. 6A). Transformed cells were incubated with DMSO alone as a control, or with a proprietary ecdysone receptor ligand (Rohm & Haas RH5992) at final concentration 10 μM for 4 hours. The samples were then assayed for β-galactosidase activity as described above. […] However, as with all systems tested, fruit fly, mosquito and spruce bud worm, co-expression of CfEcR with CfUSP did give rise to constitutive transactivation of reporter gene. […] However, deletion of the A/B domain of the CfUSP abolished this constitutive transactivation of the reporter gene. Thus, in the spruce bud worm system, constitutive transcription is not observed when CfEcR/Cf ΔAB USP or Cf ΔAB EcR/Cf ΔAB USP are co-expressed. […] Ligand dependent transactivation was observed only in the presence of the co-activator GRIP1. We also observed stronger ligand dependent activity for the Cf ΔA/B EcR+Cf ΔA/B USP+GRIP1 combination than the CfEcR+CfΔA/B USP+GRIP1 combination.

Assay [1] addresses T2, Cf EcR + Cf ΔA/B USP + GRIP1 (Choristoneura fumiferana, UniProt O77240).
T2 construct: human ubiquitin (76 aa) (N, cleaved yes); expressed in transfected cells; host or cells: yeast (Saccharomyces cerevisiae); GRIP1 from pRS423-ADH1GRIP812
Here is the method:
as §1, §2, §3

For a further assay, the target named is T3, Cf EcR + Cf ΔA/B USP (Choristoneura fumiferana, UniProt O77240).
T3 construct: human ubiquitin (76 aa) (N, cleaved yes); expressed in transfected cells; host or cells: yeast (Saccharomyces cerevisiae)
The settings on record: RH 5992 10 μM, 4 hours, DMSO control 0.205. Here is the method: as §1, §2, §3

In a further assay the target is T4, Cf ΔA/B EcR + Cf USP (Choristoneura fumiferana, UniProt O77240).
T4 construct: human ubiquitin (76 aa) (N, cleaved yes); expressed in transfected cells; host or cells: yeast (Saccharomyces cerevisiae)
The conditions noted are these: RH 5992 10 μM, 4 hours, DMSO control 2.684. The procedure: as §1, §2, §3

Assay [2] has as its target T5, Cf ΔA/B EcR + Cf ΔA/B USP (Choristoneura fumiferana, UniProt O77240).
T5 construct: human ubiquitin (76 aa) (N, cleaved yes); expressed in transfected cells; host or cells: yeast (Saccharomyces cerevisiae)
The conditions noted are these: RH 5992 10 μM, 4 hours, DMSO control 0.209. Here is the method: as §1, §2, §3

The target of the next assay is T6, Cf USP (Choristoneura fumiferana, UniProt O76202).
T6 construct: human ubiquitin (76 aa) (N, cleaved yes); expressed in transfected cells; host or cells: yeast (Saccharomyces cerevisiae), plasmid pRS425CfUSP, CUP1 promoter
The conditions noted are these: RH 5992 10 μM, 4 hours, DMSO control 0.233. The procedure: as §1, §2, §3

In a further assay the target is T7, Cf EcR (Choristoneura fumiferana, UniProt O77240).
T7 construct: human ubiquitin (76 aa) (N, cleaved yes); expressed in transfected cells; host or cells: yeast (Saccharomyces cerevisiae), plasmid YEpCfEcR, CUP1 promoter
The settings on record: RH 5992 10 μM, 4 hours, DMSO control 0.201. Here is the method:
as §1, §2, §3

T2 sequence (O77240 1-513, stated change not applied): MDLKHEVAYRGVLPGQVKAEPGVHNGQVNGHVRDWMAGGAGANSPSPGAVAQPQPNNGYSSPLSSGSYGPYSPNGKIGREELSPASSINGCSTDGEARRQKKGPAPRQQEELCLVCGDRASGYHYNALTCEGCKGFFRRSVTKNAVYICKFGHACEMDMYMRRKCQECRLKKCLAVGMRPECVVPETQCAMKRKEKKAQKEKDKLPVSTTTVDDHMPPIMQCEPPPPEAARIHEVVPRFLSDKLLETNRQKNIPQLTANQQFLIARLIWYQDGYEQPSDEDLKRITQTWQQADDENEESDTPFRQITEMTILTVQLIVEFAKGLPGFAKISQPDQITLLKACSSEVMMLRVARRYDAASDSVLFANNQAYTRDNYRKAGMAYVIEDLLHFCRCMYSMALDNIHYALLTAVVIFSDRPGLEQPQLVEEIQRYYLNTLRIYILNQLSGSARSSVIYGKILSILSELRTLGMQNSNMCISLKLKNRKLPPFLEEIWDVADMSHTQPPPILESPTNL
T2 sequence (O76202 with tags, fused parts or gaps partner): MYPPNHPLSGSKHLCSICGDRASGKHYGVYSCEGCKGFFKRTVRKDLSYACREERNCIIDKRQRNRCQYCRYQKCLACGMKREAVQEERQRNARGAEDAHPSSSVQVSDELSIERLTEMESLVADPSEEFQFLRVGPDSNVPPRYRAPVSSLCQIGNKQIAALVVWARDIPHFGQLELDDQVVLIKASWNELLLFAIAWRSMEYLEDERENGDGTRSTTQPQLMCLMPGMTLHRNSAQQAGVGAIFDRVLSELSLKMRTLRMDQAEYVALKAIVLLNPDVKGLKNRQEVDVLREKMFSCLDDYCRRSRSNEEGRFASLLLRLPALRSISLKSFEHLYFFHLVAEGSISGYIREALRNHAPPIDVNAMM
T1 sequence (O77240 1-513): as the sequence (O77240 1-513, stated change not applied) above
T1 sequence (O76202 whole entry partner): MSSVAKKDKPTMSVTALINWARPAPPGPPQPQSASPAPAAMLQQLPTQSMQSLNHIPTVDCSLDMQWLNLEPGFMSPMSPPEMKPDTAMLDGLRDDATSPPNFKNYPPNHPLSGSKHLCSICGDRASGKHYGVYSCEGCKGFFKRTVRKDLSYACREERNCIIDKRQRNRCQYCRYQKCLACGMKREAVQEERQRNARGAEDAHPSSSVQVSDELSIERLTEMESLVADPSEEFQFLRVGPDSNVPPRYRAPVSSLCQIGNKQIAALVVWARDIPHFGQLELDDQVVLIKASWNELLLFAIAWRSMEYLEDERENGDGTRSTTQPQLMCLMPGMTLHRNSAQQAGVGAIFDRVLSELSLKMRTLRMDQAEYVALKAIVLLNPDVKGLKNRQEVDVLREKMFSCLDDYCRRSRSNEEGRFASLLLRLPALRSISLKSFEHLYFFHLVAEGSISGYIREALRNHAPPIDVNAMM
T7 sequence (O77240 1-513): as the sequence (O77240 1-513, stated change not applied) above
T3 sequence (O77240 1-513, stated change not applied): as above
T3 sequence (O76202 with tags, fused parts or gaps partner): as the sequence (O76202 with tags, fused parts or gaps partner) above
T5 sequence (O77240 entry or part of it, stated change not applied): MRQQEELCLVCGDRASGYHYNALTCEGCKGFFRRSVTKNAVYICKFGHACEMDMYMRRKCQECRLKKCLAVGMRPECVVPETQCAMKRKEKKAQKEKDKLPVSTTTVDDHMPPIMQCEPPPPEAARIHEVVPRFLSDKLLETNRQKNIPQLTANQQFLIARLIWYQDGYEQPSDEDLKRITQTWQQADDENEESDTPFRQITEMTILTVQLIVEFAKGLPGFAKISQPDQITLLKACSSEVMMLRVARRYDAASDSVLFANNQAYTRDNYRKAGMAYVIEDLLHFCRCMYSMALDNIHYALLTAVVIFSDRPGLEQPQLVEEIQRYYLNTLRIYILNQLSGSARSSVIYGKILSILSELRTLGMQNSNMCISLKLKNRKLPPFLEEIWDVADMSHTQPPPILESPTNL
T5 sequence (O76202 with tags, fused parts or gaps partner): as the sequence (O76202 with tags, fused parts or gaps partner) above
T4 sequence (O77240 entry or part of it, stated change not applied): as the sequence (O77240 entry or part of it, stated change not applied) above
T4 sequence (O76202 whole entry partner): as the sequence (O76202 whole entry partner) above
T6 sequence (O76202 whole entry): as the sequence (O76202 whole entry partner) above

For `CCc1ccc(C(=O)NN(C(=O)c2cc(C)cc(C)c2)C(C)(C)C)cc1` [RH 5992, tebufenozide], the β-galactosidase activity at Cf EcR + CfUSP amounted to 3.000; in assay [1] (RH 5992 10 μM, 4 hours, yeast, Cf EcR + Cf ΔA/B USP + GRIP1, DMSO control 0.223) it was 0.492; on Cf EcR + Cf ΔA/B USP, 0.241; at Cf ΔA/B EcR + Cf USP it was 3.000; in assay [2] it was 0.234; at Cf USP, 0.230. Besides, the β-galactosidase activity at Cf EcR was found to be 0.175. Besides, the “response of the complex to the ligand (in words)” value in assay [1] (complex CfEcR:CfΔA/B USP:GRIP1) was “responsive, but not very sensitive”.
